Experiments:
[1] = Three time point assay for plasma, brain and testes distribution after oral dosing; assay type: in vivo, rat; settings: for Brain concentration / Kp brain/plasma / Kp testes/plasma / Plasma concentration / Testes concentration: rat, oral dosing
Method: Exemplary compounds were tested for distribution in plasma, brain and testes tissue following oral dosing of the compounds in rats. Procedures and results are described below.
Male SD Rats were group-housed (up to four animals/sex/cage) in polysulfone cages with certified aspen wood bedding during acclimation and study period.
Certified rodent diet and water was provided to all animals ad libitum, unless fasting for study procedures.
Appropriate amount of test article was accurately weighed and mixed with an appropriate volume of vehicle to get a clear solution or a uniform suspension; vortexing or sonication in water bath may also be need. Animals were dosed within four hours after the formulation is prepared.
For PO dosing, the dose formulation was administered via oral gavage following facility SOPs. The dose volume was determined by the animals' body weight collected on the morning of dosing day. The dose was 10 mg/kg.
Each blood collection (about 1 mL per time point at one or more of 0.5 h, 2 h, 3 h, 5.3 h, and 7 h) was performed from jugular vein or other suitable site of each animal into pre-chilled commercial EDTA-K2 tubes and placed on wet ice until centrifugation.
Blood samples were processed for plasma by centrifugation at approximately 4° C., 3,200 g for 10 min. Plasma was collected respectively and transferred into pre-labeled 96 well plate or polypropylene tubes, quick frozen over dry ice and kept at −60° C. or lower until LC-MS/MS analysis.
Rat brain was perfused with PBS to remove blood before harvest.
After perfusion, brain and testis were homogenized using homogenizing buffer (15 mM PBS (pH7.4):MeOH=2:1) at the ratio of 1:9 (1 g tissue with 9 mL buffer, the dilution ratio is 10). The brain homogenate was kept at −60° C. or lower until LC-MS/MS analysis. General sample processing procedure (brain homogenate & testis homogenate) using 96-well plate: • 1). An aliquot of 40 μL unknown sample, calibration standard, quality control and dilution quality control (if have), single blank, and double blank sample was added to the 96-well plate respectively; • 2). Each sample (except the double blank) was quenched with 400 μL of IS1 respectively (double blank sample was quenched with 400 μL of I), and then the mixture was vortex-mixed for 10 min at 800 rpm and centrifuged for 15 min at 3220×g, 4° C.; • 3). An aliquot of 50 μL supernatant was transferred to another clean 96-well plate and centrifuged for 5 min at 3220×g, 4° C., then the supernatant was directly injected for LC-MS/MS analysis.
• 1. A LC-MS/MS method for the quantitative determination of test compound in biological matrix was developed under Non-GLP compliance. • 2. A calibration curve with at least 6 non-zero calibration standards was applied for the method including LLOQ. • 3. A set of QCs consisting of low, middle, and high concentrations were applied for the method. • 4. N in 1 cassette LC-MS/MS method was developed for samples coming from different studies and the interference among all cassette analytes was evaluated during the method development. • 5. Cassette administration assay was performed if the mass difference (Δmass) among different analytes was more than 4 Da. In this case, interference evaluation was not necessary.
• 1. If sample number within a batch was ≤12, at least one set of standard curve separated with two parts through begin and end of the sequence, was included in the run, and QCs were not required. The recommended injection order was C8, C6, C4, C2, study samples, C7, C5, C3, C1. • 2. If sample number within a batch was >12, one standard curve and two sets of QCs with low, middle and high concentrations were applied for bioanalysis. Meanwhile, QCs number should be more than 5% of study sample number. • 3. Samples with the same types of matrix in different studies were quantified in one analysis run by using the developed N in 1 cassette LC-MS/MS method. • 4. […]

[2] = molecular target: T1, MDR1 (MDR1-MDCKII cells) (Homo sapiens, UniProt P08183); assay: Permeability in MDR1-MDCKII cells; assay type: in vitro ADME; settings: for MDCKII-MDR1: Papp A-B: MDCKII-MDR1, apical to basolateral
T1 construct: host or cells: MDCKII (canine kidney) cells
Method: Exemplary compounds were tested for cell permeability in Caco-2, MDCKII-MDR1 and MDCKII-BCRP cell lines with efflux transporter engagement inferred from the efflux ratios determined. Procedures and results are described below. […] This feature of certain compounds is in part due to efflux transporter engagement. See, for instance, exemplary such compounds included in data tables below.
MDR1-MDCKII cells (obtained from Piet Borst at the Netherlands Cancer Institute) were seeded onto […] membranes (PET) in 96-well insert systems at 2.5×10^5 cells/mL until to 4-7 days for confluent cell monolayer formation.
Test compounds were diluted with the transport buffer (HBSS with 10 mM Hepes, pH7.4) from DMSO stock solution to a concentration of 2.00 μM (DMSO<1%) and applied to the apical or basolateral side of the cell monolayer. Permeation of the test compounds from A to B direction or B to A direction was determined in duplicate. Digoxin was tested at 10.0 μM from A to B direction or B to A direction as well, while nadolol and metoprolol were tested at […] in A to B direction in duplicate. The plate was incubated for 2.5 hours in CO2 incubator at 37±1° C., with 5% CO2 at saturated humidity without shaking. In addition, the efflux ratio of each compound was also determined. Test and reference compounds were quantified by LC-MS/MS analysis based on the peak area ratio of analyte/IS.
After transport assay, Lucifer yellow rejection assay are applied to determine the cell monolayer integrity. Buffers are removed from both apical and basolateral chambers, followed by the addition of 75 μL of 100 μM lucifer yellow in transport buffer and 250 μL transport buffer in apical and basolateral chambers, respectively. The plate is incubated for 30 minutes at 37° C. with 5% CO2 and saturated humidity without shaking. After 30 minutes incubation, 20 μL of lucifer yellow samples are taken from the apical sides, followed by the addition of 60 μL of Transport Buffer. And then 80 μL of lucifer yellow samples are taken from the basolateral sides. The relative fluorescence unit (RFU) of lucifer yellow is measured at 425/528 nm (excitation/emission) with an Envision plate reader.
The apparent permeability coefficient Papp (cm/s) was calculated using the equation: […]
Where dCr/dt is the cumulative concentration of compound in the receiver chamber as a function of time (μM/s); Vr is the solution volume in the receiver chamber (0.075 mL on the apical side, 0.25 mL on the basolateral side); A is the surface area for the transport, i.e. 0.0804 cm^2 for the area of the monolayer; C0 is the initial concentration in the donor chamber (μM). The efflux ratio was calculated using the equation: […]
Where Vd is the volume in the donor chambers (0.075 mL on the apical side, 0.25 mL on the basolateral side); Cd and Cr are the final concentrations of transport compound in donor and receiver chambers, respectively.

T1 sequence (P08183 whole entry): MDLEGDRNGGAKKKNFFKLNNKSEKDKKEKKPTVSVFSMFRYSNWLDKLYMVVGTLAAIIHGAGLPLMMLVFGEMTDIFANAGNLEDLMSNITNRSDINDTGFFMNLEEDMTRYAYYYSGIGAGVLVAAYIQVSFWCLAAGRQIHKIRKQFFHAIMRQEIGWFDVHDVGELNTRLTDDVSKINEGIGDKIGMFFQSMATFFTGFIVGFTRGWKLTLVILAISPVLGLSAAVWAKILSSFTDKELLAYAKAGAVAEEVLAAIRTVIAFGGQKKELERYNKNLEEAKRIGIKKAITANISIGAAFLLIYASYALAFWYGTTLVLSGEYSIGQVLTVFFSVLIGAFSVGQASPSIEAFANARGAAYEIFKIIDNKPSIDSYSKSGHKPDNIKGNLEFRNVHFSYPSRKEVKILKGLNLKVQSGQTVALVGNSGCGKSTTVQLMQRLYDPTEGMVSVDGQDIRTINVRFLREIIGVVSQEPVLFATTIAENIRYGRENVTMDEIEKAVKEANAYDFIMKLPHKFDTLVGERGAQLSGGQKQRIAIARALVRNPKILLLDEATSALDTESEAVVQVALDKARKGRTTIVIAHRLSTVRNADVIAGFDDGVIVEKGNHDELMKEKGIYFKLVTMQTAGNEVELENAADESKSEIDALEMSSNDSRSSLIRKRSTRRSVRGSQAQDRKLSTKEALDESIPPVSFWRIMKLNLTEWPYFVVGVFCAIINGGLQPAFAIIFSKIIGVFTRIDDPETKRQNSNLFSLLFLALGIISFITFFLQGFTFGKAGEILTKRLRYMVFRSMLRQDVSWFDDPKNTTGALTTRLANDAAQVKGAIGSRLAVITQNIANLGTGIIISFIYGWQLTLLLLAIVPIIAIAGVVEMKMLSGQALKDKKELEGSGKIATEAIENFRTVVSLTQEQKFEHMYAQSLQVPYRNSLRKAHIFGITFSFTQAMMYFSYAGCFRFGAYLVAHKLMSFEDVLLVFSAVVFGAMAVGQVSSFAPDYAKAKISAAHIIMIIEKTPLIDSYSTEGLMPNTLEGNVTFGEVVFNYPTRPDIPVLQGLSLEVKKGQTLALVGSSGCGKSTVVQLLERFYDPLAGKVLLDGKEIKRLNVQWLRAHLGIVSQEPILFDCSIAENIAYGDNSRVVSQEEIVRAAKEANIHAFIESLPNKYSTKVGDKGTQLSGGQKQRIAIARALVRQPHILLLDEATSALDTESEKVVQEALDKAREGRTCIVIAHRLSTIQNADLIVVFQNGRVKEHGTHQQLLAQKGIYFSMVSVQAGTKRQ

Compound | Brain concentration ([1]; time point 2 h) | Kp brain/plasma ([1]; time point 2 h) | Kp testes/plasma ([1]; time point 2 h) | Plasma concentration ([1]; time point 2 h) | Testes concentration ([1]; time point 2 h) | MDCKII-MDR1: Efflux Ratio [2] | MDCKII-MDR1: Papp A-B [2] | also measured
Cc1ccc(-c2noc(C3(C)CC(F)(F)CN3)n2)cc1NC(=O)c1cnc2ccccn12 (racemic) [Compound I-328] | 25.4 ng/g | 0.42 | 0.93 | 60.3 ng/mL | 56.2 ng/g | 0.93 | 20.8 10^−6 cm/s | –
Cc1ccc(-c2noc(CC(C)O)n2)cc1NC(=O)c1cnc2ccccn12 (racemic) [Compound I-363] | 46 ng/g | 0.06 | 0.13 | 815 ng/mL | 104 ng/g | 2.01 | 13 10^−6 cm/s | –
Cc1ccc(-c2noc(C3CCS(=O)(=O)C3)n2)cc1NC(=O)c1cnc2ccccn12 (racemic) [Compound I-389] | 63 ng/g | 0.03 | 0.91 | 2030 ng/mL | 1830 ng/g | 10.9 | 3.53 10^−6 cm/s | –
Cc1ccc(-c2noc(C(C)NS(C)(=O)=O)n2)cc1NC(=O)c1cnc2ccccn12 (single isomer, unassigned) [Compound I-237] | 0 ng/g | – | 0.18 | 1090 ng/mL | 192 ng/g | 20.5 | 1.43 10^−6 cm/s | –
COCCOCc1ccn2c(C(=O)Nc3cc(-c4noc([C@H]5C[C@@H]5F)n4)ccc3C)cnc2c1 [Compound I-84] | 400 ng/g | 0.07 | 0.11 | 5900 ng/mL | 655 ng/g | 1.78 | 12.1 10^−6 cm/s | brain penetration as indicated by Kp (Cbrain/Cplasma) ([1]; result in words): do not significantly penetrate the brain or minimally penetrate the brain
Cc1ccc(-c2noc([C@H]3C[C@@H]3F)n2)cc1NC(=O)c1cnc2cc(OC(F)(F)F)ccn12 [Compound I-87] | 954 ng/g | 0.68 | 0.71 | 1480 ng/mL | 989 ng/g | 0.74 | 4.58 10^−6 cm/s | Brain concentration ([1]; time point 0.5 h): 248 ng/g; Kp brain/plasma ([1]; time point 0.5 h): 0.60; Kp testes/plasma ([1]; time point 0.5 h): 0.38; Plasma concentration ([1]; time point 0.5 h): 454 ng/mL; Testes concentration ([1]; time point 0.5 h): 159 ng/g; Brain concentration ([1]; time point 7 h): 1730 ng/g; Kp brain/plasma ([1]; time point 7 h): 0.36; Kp testes/plasma ([1]; time point 7 h): 0.34; Plasma concentration ([1]; time point 7 h): 4970 ng/mL; Testes concentration ([1]; time point 7 h): 1650 ng/g
Cc1ccc(-c2noc([C@H]3C[C@@H]3F)n2)cc1NC(=O)c1cnc2cc(OC(C)C)ccn12 [Compound I-88] | 1200 ng/g | 0.14 | 0.16 | 8390 ng/mL | 1330 ng/g | 0.86 | 3.92 10^−6 cm/s | Brain concentration ([1]; time point 0.5 h): 722 ng/g; Kp brain/plasma ([1]; time point 0.5 h): 0.27; Kp testes/plasma ([1]; time point 0.5 h): 0.19; Plasma concentration ([1]; time point 0.5 h): 2640 ng/mL; Testes concentration ([1]; time point 0.5 h): 480 ng/g; Brain concentration ([1]; time point 7 h): 1250 ng/g; Kp brain/plasma ([1]; time point 7 h): 0.15; Kp testes/plasma ([1]; time point 7 h): 0.21; Plasma concentration ([1]; time point 7 h): 9200 ng/mL; Testes concentration ([1]; time point 7 h): 1950 ng/g
COC(=O)N1CC(c2nc(-c3ccc(C)c(NC(=O)c4cnn5ccc(Br)cc45)c3)no2)C1 [Compound I-280] | – | – | – | – | – | 1.19 | 11.8 10^−6 cm/s | –
CNC(=O)N1CC(c2nc(-c3ccc(C)c(NC(=O)c4cnc5ccccn45)c3)no2)C1 [Compound I-282] | – | – | – | – | – | 70.3 | 0.47 10^−6 cm/s | –
Cc1ccc(-c2noc(C3CN(C(=O)CO)C3)n2)cc1NC(=O)c1cnc2ccccn12 [Compound I-287] | – | – | – | – | – | 27.9 | 0.83 10^−6 cm/s | –
Cc1ccc(-c2noc([C@H]3C[C@@H]3F)n2)cc1NC(=O)c1cnc2ccc(F)cn12 [Compound I-288] | – | – | – | – | – | 0.51 | 20.6 10^−6 cm/s | –
CCCNc1ccn2c(C(=O)Nc3cc(-c4noc([C@H]5C[C@@H]5F)n4)ccc3C)cnc2c1 [Compound I-304] | – | – | – | – | – | 1.08 | 3.65 10^−6 cm/s | –
Cc1ccc(-c2noc(CCO)n2)cc1NC(=O)c1cnc2ccccn12 [Compound I-306] | – | – | – | – | – | 2.88 | 14.5 10^−6 cm/s | –
Cc1ccc(-c2noc(CC(C)(C)O)n2)cc1NC(=O)c1cnc2ccccn12 [Compound I-336] | – | – | – | – | – | 1.85 | 15.4 10^−6 cm/s | –
O=C(Nc1cc(-c2noc([C@H]3C[C@@H]3F)n2)ccc1Cl)c1cnc2ccccn12 [Compound I-341] | – | – | – | – | – | 0.82 | 17.7 10^−6 cm/s | –
Cc1ccc(-c2noc(C3CC(F)C3)n2)cc1NC(=O)c1cnc2ccccn12 (centres unmarked) [Compound I-381] | – | – | – | – | – | 0.55 | 5.95 10^−6 cm/s | –
Cc1ccc(-c2noc(C3CC(C)(F)C3)n2)cc1NC(=O)c1cnc2ccccn12 (centres unmarked) [Compound I-387] | – | – | – | – | – | 0.48 | 7.59 10^−6 cm/s | –

— US20240254119A1 (THIRD HARMONIC BIO, INC., priority 2022, published 2024)
